# Patent US20240293364A1, “BIOMARKERS FOR CANCER THERAPY USING MDM2 ANTAGONISTS” (OTSUKA PHARMACEUTICAL CO., LTD., priority 2021, published 2024)
# Legend:
# Format in all cases: cell-based
# [1] = test system: ATM mutant cell lines (HCC1500, LNCap, HT-144, HepG2); assay: Proliferation assays on cancer cell lines (CellTiter-Glo), ATM mutant cell lines; conditions: four ATMmut cell lines: HCC1500 breast, LNCap prostate, HT-144 melanoma, HepG2 liver (FIG. 2C)
# Procedure: Cancer cells were cultured in appropriate medium. […] Each cell line was tested in triplicates.
# DDR signalling pathway = assay: Western blotting of DDR signalling in ATM mutant cell lines; conditions: ATM mutant cell lines (FIG. 2E)
# Procedure: The cell lysates were then analysed by Western blotting. […] After washing, blots were incubated for 1 hour with infrared dye labelled anti-rabbit IR800 or anti-goat IR800 secondary antibodies at a dilution of 1: 10,000 in Odyssey blocking buffer (LiCor Biosciences, Lincoln, USA).
# [2] = test system: ATM mutant cell lines LNCap and HepG2; assay: Apoptosis assays (Annexin V-FITC/PI flow cytometry); conditions: LNCap prostate and HepG2 liver (FIG. 2D)
# Procedure: After 72-hour incubation of the cells with compound, cells were trypsinised, washed with PBS and immediately used for flow cytometry analysis.
# The samples were stained with eBioscience™ Annexin V-FITC Apoptosis Detection Kit (#BMS500FI-100, Thermo Fisher Scientific, Waltham, MA, USA) according to manufacturer's recommendations. Briefly, the samples were washed in PBS and resuspended in 200 μl of 1× binding buffer containing 5 μl of Annexin V-FITC for 10 min at room temperature. Following the incubation, samples were washed with 1× binding buffer and resuspended in 200 μl 1× binding buffer and 10 μl of the 20 μg/ml PI.
# The stained samples were then immediately analysed by flow cytometry on Guava easyCyte HT cytometer (Merck-Millipore). The cell populations were separated into three groups: live cells showing only a low level of fluorescence (Annexin V-/PI-), apoptotic cells showing green fluorescence (Annexin V+/PI−) and dead cells showing both red and green fluorescence (Annexin V+/PI+). Data analyses were performed using Microsoft excel and results plotted on Prism version 7 (GraphPad Software, California, USA).
# [3] = test system: MSI-H colorectal cancer PDOs; assay: Proliferation assays on patient-derived organoids (PDOs), MSI-H colorectal cancer; conditions: 6 MSI-H colorectal cancer PDOs (FIG. 4C)
# Procedure: Organoids were retrieved from the CrownBIO organoid bank and expanded before getting enough quantity according to standard operation procedure. One day before organoids seeding, the needed number of organoids were passaged 1:1 using 50% Matrigel and 50% corresponding culture medium. On Day 0 organoids were seeded and compound added: organoids were collected by adding 20 μl 100× Dispase solution to each well from a 6-well plate, and incubating at 37C for 30 min. After incubation, organoids were collected from all wells and pipetted through a pre-wet 100 μm filter into a 50 ml plastic tube, then filtered the flow through over a pre-wet 20 μm filter, inverted the 20 μm filter and recovered the organoids in a new 50 ml tube, Collect organoids were then resuspended in the corresponding culture media, and counted. Organoids cell suspensions were added to 384-well plate by Multidrop dispenser. 2-4 hours after organoids seeding, compounds were added by Tecan D300e, then plates were placed back into incubator for 5 days' incubation. On day 5, proliferation was assayed by CellTiter-Glo assay. […] The plate was then read (for luminescence) in an Envision plate reader.
smiles,measurement,setting,value
"CC[C@@](O)(c1cc(F)c2c(c1)C(=O)N([C@H](c1ccc(Cl)cc1)[C@H](C)C(=O)O)[C@@]2(OC)c1ccc(Cl)cc1)C1CCOCC1 [Example 124, (2S,3S)-3-(4-chlorophenyl)-3-[(1R)-1-(4-chlorophenyl)-7-fluoro-5-[(1S)-1-hydroxy-1-(oxan-4-yl)propyl]-1-methoxy-3-oxo-2,3-dihydro-1H-isoindol-2-yl]-2-methylpropanoic acid]",sensitivity as measured by reduction in cell proliferation,[1],showed sensitivity
same,modulation of the DDR signalling pathway (western blot),DDR signalling pathway,clear modulation of the DDR signalling pathway
same,sensitivity as measured by increased apoptosis,[2],showed sensitivity
same,sensitivity as measured by reduction in cell proliferation,[3],showed sensitivity
